Results as given in patent US5753518A, “Method of determining affinity and kinetic properties” (Pharmacia AB, priority 1993, dated 1998).

Columns and labels:
Format in all cases: binding, mouse
[1] = system: monoclonal anti-theophylline antibody; assay: Competitive kinetics: theophylline derivatives mixed with aminotheophylline-conalbumin conjugate over captured anti-theophylline Mab (BIAcore SPR); conditions: 500 nM ligand solution mixed with 620 nM conjugate solution; 10 μl/min for 90 seconds; FIG. 5
Procedure: (§1) A continuous flow of HBS (10 mM Hepes with 0.15M NaCl, 3.4 mM EDTA and 0.05% surfactant P20 at pH 7.4) was maintained over a BIAcore™ sensor chip CM5 (a gold-plated glass slide supporting a carboxymethyldextran layer via a monolayer of long-chain hydrocarbons; supplied by Pharmacia Biosensor AB, Uppsala, Sweden). The carboxylated matrix on the sensor surface was activated by a three-minute injection of a solution containing 0.2M N-ethyl-N'-(3-diethylaminopropyl)carbodiimide (EDC) and 0.05M N-hydroxysuccinimide (NHS). 100 μg/ml of rabbit anti-mouse Fc (RAMFc) antibodies (Pharmacia Biosensor AB, Uppsala, Sweden) in 10 mM acetate buffer, pH 4.75, were then injected followed by a pulse of ethanolamine-hydrochloride, pH 8.5, to block remaining NHS-ester groups.
Different solutions of the above prepared conalbumin conjugate varying in concentration from 100 to 1000 nM, were then injected and the binding curves were recorded.

[2] = system: monoclonal anti-histamine antibody; assay: Competitive kinetics: histamine and methylhistamine mixed with histamine-conalbumin conjugate over captured anti-histamine Mab (BIAcore SPR); conditions: 220 nM ligand solution mixed with 80 nM conjugate solution; 10 μl/min for 8 minutes; FIG. 6
Procedure: as §1
Different solutions of the above prepared conalbumin conjugate, varying in concentration from 100 to 1000 nM, were then injected and the binding curves were recorded. […] For the following competitive experiment, a concentration of 80 nM was chosen.

[3] = system: monoclonal anti-p24 antibody (Mab 7); assay: Competitive kinetics: synthetic p24 derived peptides mixed with p24 over captured anti-p24 Mab (BIAcore SPR); conditions: for affinity for the antibody (qualitative): p24 at 60 nM and the peptides at 44 μM, FIG. 4
Procedure: With the above prepared sensor surface docked into the BIAcore™ instrument, a solution of purified monoclonal anti-p24 antibody (Pharmacia Diagnostics AB, Uppsala, Sweden), hereinafter referred to as Mab 7, was injected, the anti-p24 monoclonal antibody thereby being captured by the immobilized RAMFc. Different solutions of HIV core protein p24 (Pharmacia Genetic Engineering, San Diego, USA), varying in concentration from 18.75 to 300 nM, were then injected and the binding curves, relative response in resonance units (RU) versus time in seconds, were recorded (1 RU corresponds to a mass change, caused by the binding of a protein, on the sensor surface of about 1 pg/mm^2; Stenberg, E., et al., J. Colloid and Interface Sci. 143 (1991) 513-526).
100 μl volumes of a 60 nM solution of p24 in HBS were mixed with 100 μl of different concentrations (5 nM to 1 mM) of two synthetic p24 derived peptides corresponding to (i) the regions 329-352 (peptide 7): […] (Mw =2494), and (ii) the regions 332-349 (peptide 5): […] (Mw =1841) (obtained from Dr Ake Engstrom, Department of Immunology, Biomedical Center, University of Uppsala, Sweden). The peptide sequences are according to Ratner et al., Nature 313, 227-284, 1985 and are numbered according to Myers G. et al., Database Human Retroviruses and AIDS, Los Alamos National Laboratory, Los Alamos, U.S.A., 1988. Each mixture was injected at 10 μl/min for two minutes over the sensor surface with captured anti-p24 antibody and the respective binding curves for each peptide were recorded. Peptide 5 was used at the concentrations: 0, 4.91, 14.75, 44.26, 132.78, 398.33, and 1195.00 μM; and peptide 7 at the concentrations 0, 0.005, 0.016, 0.049, 0.147, 0.441, and 1.323 μM.
The binding curves for peptide 5 are shown in overlay plot in FIG. 2, and a corresponding overlay plot of the binding curves for peptide 7 is shown in FIG. 3. […] Evidently, these two peptides have quite different affinities for the immobilized antibody.

Compound	affinity for the antibody (relative ranking) [1]	affinity for the antibody (relative ranking) [2]	affinity for the antibody (qualitative) [3]	further results
Cn1c(=O)c2c(ncn2CC(=O)O)n(C)c1=O [acetic acid derivative of theophylline, 7-theophylline acetic acid]	much lower affinity			
NCCc1c[nH]cn1 [histamine]		methylhistamine has a higher affinity for the antibody than histamine itself		
DCKTILKALGPAATLEEMMTACQG [peptide 7, synthetic p24 derived peptide, regions 329-352]			high affinity	peptide concentration at which competing kinetics is seen ([3]; mixed with 60 nM p24 solution, 10 μl/min for two minutes, FIG. 3): 5 nM
TILKALGPAATLEEMMTA [peptide 5, synthetic p24 derived peptide, regions 332-349]			low affinity	peptide concentration at which competition is evident ([3]; mixed with 60 nM p24 solution, 10 μl/min for two minutes, FIG. 2): evident only at μM concentrations
aminotheophylline	highest affinity			
methylhistamine		higher affinity		
